Values after ≈ are worked out from the molar mass of the structure shown. Active and inactive are the calls of the source. The rule behind the calls is not given here.
Experiments:
Mus musculus [1] = experiment: Inhibition of Hsp90 in human COLO205 cells xenografted in mouse assessed as Her2 degradation at 100 mg/kg administered QD for 2 days measured 8 hrs post-last dose; type: functional; details: COLO 205
[2] = Drug uptake in human COLO205 tumor xenografted in mouse at 100 mg/kg administered QD for 2 days measured 8 hrs post-last dose; type: ADME, organism-based, Neoplasm; design: dose 100 mg/kg; details: human COLO205 tumor xenograft, read-out: Drug uptake
Mus musculus [3] = experiment: Inhibition of Hsp90 in human COLO205 cells xenografted in mouse assessed as Raf1 degradation at 100 mg/kg administered QD for 2 days measured 8 hrs post-last dose; type: functional; details: COLO 205
[4] = Half life in rat at 5 mg/kg, iv; type: ADME, organism-based; design: dose 5 mg/kg, route intravenous; details: in vivo
[5] = Oral bioavailability in rat at 5 mg/kg; type: ADME, organism-based; details: in vivo
Rattus norvegicus = experiment: Dose normalized AUC in rat at 5 mg/kg, iv; type: ADME, organism-based; design: dose 5 mg/kg, route intravenous; details: in vivo
[6] = Clearance in rat at 5 mg/kg, iv; type: ADME, organism-based; design: dose 5 mg/kg, route intravenous; details: in vivo
[7] = Apparent permeability across MDCK cells; type: ADME, cell-based, Canis lupus familiaris; details: dog
[8] = Kinetic solubility of the compound; type: physicochemical; details: read-out: Kinetic_solubility
[9] = Drug metabolism in human liver microsomes at 15 uM after 30 mins; type: ADME, Microsome; details: read-out: Drug metabolism
[10] = Drug metabolism in mouse liver microsomes at 15 uM after 30 mins; type: ADME, Microsome; details: read-out: Drug metabolism
Heat shock protein HSP90 [11] = target: T1, Heat shock protein HSP90 (Homo sapiens, UniProt P07900+P08238); experiment: Inhibition of Hsp90 in human A549 cells assessed as Raf1 degradation after 24 hrs by Western blot analysis; type: cell-based
Heat shock protein HSP90 [12] = target: T1, Heat shock protein HSP90; experiment: Displacement of biotinylated geldanamycin from human His-tagged Hsp90 by TR-FRET assay; type: protein assay
BT-474 = experiment: Antiproliferative activity against human BT474 cells overexpressing Her2 after 48 hrs by BrdU labeling assay; type: functional, cell-based; details: BT-474, 48 h
MDA-MB-453 = experiment: Antiproliferative activity against human MDA-MB-453 cells overexpressing Her2 after 48 hrs by BrdU labeling assay; type: functional, cell-based; details: MDA-MB-453, 48 h
NCI-N87 [13] = experiment: Antiproliferative activity against human NCI-N87 cells overexpressing Her2 after 48 hrs by BrdU labeling assay; type: functional, cell-based; details: NCI-N87, 48 h
Heat shock protein HSP90 [14] = target: T1, Heat shock protein HSP90; experiment: Inhibition of Hsp90 in human NCI-N87 cells assessed as Her2 degradation after 24 hrs by Western blot analysis; type: cell-based
NCI-N87 [15] = experiment: Antitumor activity against human NCI-N87 cells xenografted in mouse assessed as tumor regression at 100 mg/kg administered QD for 3 days in a week relative to control; type: functional
NCI-N87 [16] = experiment: Antitumor activity against human NCI-N87 cells xenografted in mouse assessed as tumor growth inhibition at 100 mg/kg administered QD for 3 days in a week relative to control; type: functional; details: NCI-N87, 72 h, read-out: TGI
NCI-N87 [17] = experiment: Antitumor activity against human NCI-N87 cells xenografted in mouse assessed as tumor growth inhibition at 60 mg/kg administered QD relative to control; type: functional; details: read-out: TGI
Plasma = experiment: Plasma concentration in mouse xenografted with human NCI-N87 cells at 100 mg/kg administered QD for 3 days measured 96 hrs post-last dose; type: ADME, organism-based; design: dose 100 mg/kg; details: in vivo, BLD = below limit of detection
[18] = Plasma concentration in mouse xenografted with human NCI-N87 cells at 100 mg/kg administered QD for 3 days measured 24 hrs post-last dose; type: ADME, organism-based; design: dose 100 mg/kg
[19] = Plasma concentration in mouse xenografted with human NCI-N87 cells at 100 mg/kg administered QD for 3 days measured 8 hrs post-last dose; type: ADME, organism-based; design: dose 100 mg/kg
[20] = Drug uptake in human NCI-N87 tumor xenografted in mouse at 100 mg/kg administered QD for 3 days measured at 96 hrs post-last dose; type: ADME, organism-based, Neoplasm; design: dose 100 mg/kg; details: human NCI-N87 tumor xenograft, read-out: Drug uptake
[21] = Drug uptake in human NCI-N87 tumor xenografted in mouse at 100 mg/kg administered QD for 3 days measured at 24 hrs post-last dose; type: ADME, organism-based, Neoplasm; design: dose 100 mg/kg; details: human NCI-N87 tumor xenograft, read-out: Drug uptake
[22] = Drug uptake in human NCI-N87 tumor xenografted in mouse at 100 mg/kg administered QD for 3 days measured at 8 hrs post-last dose; type: ADME, organism-based, Neoplasm; design: dose 100 mg/kg; details: human NCI-N87 tumor xenograft, read-out: Drug uptake
Mus musculus [23] = experiment: Inhibition of Hsp90 in human NCI-N87 cells xenografted in mouse assessed as Hsp70 upregulation at 100 mg/kg administered QD for 3 days measured at 96 hrs post-last dose relative to control; type: functional
Mus musculus [24] = experiment: Inhibition of Hsp90 in human NCI-N87 cells xenografted in mouse assessed as Hsp70 upregulation at 100 mg/kg administered QD for 3 days measured at 8 hrs post-last dose relative to control; type: functional
Mus musculus [25] = experiment: Inhibition of Hsp90 in human NCI-N87 cells xenografted in mouse assessed as Her2 degradation at 100 mg/kg administered QD for 3 days measured up to 48 hrs post-last dose relative to control; type: functional
Mus musculus [26] = experiment: Inhibition of Hsp90 in human NCI-N87 cells xenografted in mouse assessed as Raf1 degradation at 100 mg/kg administered QD for 3 days measured after 8 hrs post-last dose relative to control; type: functional, organism-based; design: dose 100 mg/kg
Mus musculus [27] = experiment: Inhibition of Hsp90 in human NCI-N87 cells xenografted in mouse assessed as Raf1 degradation at 100 mg/kg administered QD for 3 days measured at 8 hrs post-last dose relative to control; type: functional
Mus musculus [28] = experiment: Inhibition of Hsp90 in human NCI-N87 cells xenografted in mouse assessed as Her2 degradation at 100 mg/kg administered QD for 3 days measured at 8 hrs post-last dose relative to control; type: functional
MCF7 = experiment: Antiproliferative activity against human MCF7 cells overexpressing PI3K after 48 hrs by BrdU labeling assay; type: functional, cell-based; details: MCF7, 48 h
A549 = experiment: Antiproliferative activity against human A549 cells overexpressing Kras after 48 hrs by BrdU labeling assay; type: functional, cell-based; details: A549, 48 h
NCI-H1975 = experiment: Antiproliferative activity against human NCI-H1975 cells overexpressing EGFR after 48 hrs by BrdU labeling assay; type: functional, cell-based; details: NCI-H1975, 48 h
SK-MEL-28 = experiment: Antiproliferative activity against human SK-MEL-28 cells overexpressing Braf after 48 hrs by BrdU labeling assay; type: functional, cell-based; details: SK-MEL-28, 48 h
COLO 205 = experiment: Antiproliferative activity against human COLO205 cells overexpressing Braf after 48 hrs by BrdU labeling assay; type: functional, cell-based; details: COLO 205, 48 h
MKN-45 = experiment: Antiproliferative activity against human MKN45 cells overexpressing MET after 48 hrs by BrdU labeling assay; type: functional, cell-based; details: MKN-45, 48 h
HN5 = experiment: Antiproliferative activity against human HN5 cells overexpressing EGFR after 48 hrs by BrdU labeling assay; type: functional, cell-based; details: HN5, 48 h

COc1cccc(C(=O)NC2CC3CCC(C2)N3c2ccc(C(N)=O)cn2)c1C (centres undefined)
inhibition in vivo at 100 mg/kg (Mus musculus [1]): 63% | concentration at 8 h [2]: 6.7 µM | inhibition (Mus musculus [3]): inactive | half-life [4]: 2.1 h | bioavailability [5]: 81% | AUC/dose (Rattus norvegicus): 6.3 µM·kg·h/mg | clearance [6]: 0.369 L/h/kg | Papp [7]: 133 nm/s | solubility kinetic [8]: 470 µM (≈ 185 µg/mL) | metabolised at 0.5 h, 15 µM [9]: 21% | metabolised at 0.5 h, 15 µM [10]: 29% | IC50 (Heat shock protein HSP90 [11]): 3800 nM | IC50 (Heat shock protein HSP90 [12]): 641 nM

CC[C@@H](C)Nc1cc(C(=O)NC2CC3CCC(C2)N3c2ccc(C(=O)C3CC3)cn2)c(C)cc1C(N)=O (some centres undefined)
IC50 (BT-474): 0.1 nM | IC50 (MDA-MB-453): 16 nM | IC50 (NCI-N87 [13]): 21.8 nM | IC50 (Heat shock protein HSP90 [14]): 56 nM | half-life [4]: 1.4 h | bioavailability [5]: 30% | AUC/dose (Rattus norvegicus): 2.23 µM·kg·h/mg | clearance [6]: 0.92 L/h/kg | Papp [7]: 320 nm/s | Activity (NCI-N87 [15]): 21% | inhibition in vivo at 100 mg/kg (NCI-N87 [16]): > 100% | inhibition in vivo at 60 mg/kg (NCI-N87 [17]): 100% | Cp (Plasma): BLD | concentration at 24 h [18]: 0.07 µM | concentration at 8 h [19]: 2.26 µM | concentration at 96 h [20]: 1.82 µM | concentration at 24 h [21]: 2.86 µM | concentration at 8 h [22]: 5.39 µM | inhibition in vivo at 100 mg/kg (Mus musculus [23]): 343% | inhibition in vivo at 100 mg/kg (Mus musculus [24]): 234% | inhibition in vivo at 100 mg/kg (Mus musculus [25]): 75% | inhibition (Mus musculus [26]): inactive | inhibition in vivo at 100 mg/kg (Mus musculus [27]): 56% | inhibition in vivo at 100 mg/kg (Mus musculus [28]): 92% | IC50 (MCF7): 4.1 nM | IC50 (A549): 4.3 nM | IC50 (NCI-H1975): 0.7 nM | IC50 (SK-MEL-28): 0.3 nM | IC50 (COLO 205): 11.6 nM | IC50 (MKN-45): 45.5 nM | IC50 (HN5): 5.5 nM
